Residues, ends and D or L forms follow the SMILES beside them.
Tests used:
MCF-7 CSC = assay: Reversal of chemoresistance in MCF-7 CSC (MTS cell viability assay); format: cell-based, human
Experimental: (L) Determination of 50% Inhibitory Concentration (IC50) by MTS Assay:
MCF-7 AC and derived cells were seeded onto 96-well plates at a density of 1×10^4 cells per well and treatments of anticancer drugs or peptides were administered accordingly. Following 72-hour incubation at 37° C. with 5% CO2, cell viability was assessed using CellTiter 96 AQueous Non-Radioactive Cell Proliferation Assay (Promega). The IC50 value was estimated from the optical density at 492 nm using GraphPad.

ITGA2/CRT interaction = target: T1, ITGA2/CRT interaction (Homo sapiens, UniProt P17301); assay: Co-immunoprecipitation with anti-CRT antibody: competition with CRT for KXGFFKR motif of ITGA2; format: binding; conditions: CSC lysate immunoprecipitated with anti-CRT antibody; TAT peptides at 1 μM for 24 hours
T1 construct: endogenous in cells; host or cells: MCF-7-derived cells (lysate)
Experimental: Calreticulin (CRT) from MCF-7-derived cells was immunoprecipitated by anti-CRT (CST) antibody. In brief, MCF-7-derived cells, with or without 24-hour incubation of 1 μM TAT-SP or TAT-SPScr, were collected and subsequently lysed with RIPA buffer on ice for 30 minutes. The lysate was diluted 5-fold with PBS and incubated with anti-CRT antibody overnight at 4° C. with simultaneous mixing on a rotating platform, followed by further incubation of Protein-G PLUS agarose (Santa Cruz Biotechnology) at 4° C. for at least 2 hours.
After incubation, agarose beads were centrifuged and washed by PBS. Immunoprecipitated proteins were collected by treating the beads with 0.2 M glycine and subjected to Western Blotting (WB) analysis.

Akt pathway = assay: Western blotting of p-Akt (T308) in CSCs; format: cell-based, human; conditions: 1 μM peptide for 24 hours
Experimental: (K) Protein Preparation and Western Blotting:
Total protein was extracted with RIPA buffer supplied with protease inhibitor (Roche), resolved in 10% SDS-PAGE and transferred onto Immobilon-P PVDF membrane (Millipore). Membranes were blocked with 5% non-fat dry milk in Tris-buffered saline with 0.1% Tween (TBST) for 2 hours, then were incubated overnight with corresponding antibodies at 4° C., followed by incubation with horseradish peroxidase-conjugated goat anti-mouse IgG (Santa Cruz Biotechnology) or goat anti-rabbit IgG (Santa Cruz Biotechnology) as appropriate, for 2 hours at room temperature in TBST. Antibody binding was detected with Pierce ECL Western Blotting Substrate (Thermo Scientific) and images were visualized with Azure C600 imaging system (Azure Biosystems). The antibodies used were anti-ITGA2 (Abcam), anti-CRT (CST), anti-ILR2 (CST), anti-MRP1/ABCC1 (CST), anti-Mdr-1 (Santa Cruz Biotechnology), anti-Akt (pan) (CST), anti-pAkt (S473) (CST), anti-pAkt (T308) (CST), p53 (Santa Cruz Biotechnology) and anti-β-actin (Santa Cruz Biotechnology).

MRP1 = assay: DOX accumulation assay in CSCs; format: cell-based, human; conditions: 5 μM DOX, 1 μM peptide for 24 hours
Experimental: (I) DOX Accumulation Assay:
To assess MRP1 activity, 2×10^5 MCF-7 AC and derived cells, with or without 24-hour incubation of 1 μM TAT-SP or TAT-SPScr, were treated with 5 μM DOX at 37° C. for 2 hours. After removal of extracellular drugs, cells were divided into two equal halves. One half was lysed with lysis buffer (isopropanol with 0.75 M HCl and 0.2% Triton X-100) at room temperature for 30 minutes; the other half was incubated with 5 μM CMFDA (Invitrogen) in darkness at room temperature for 30 minutes. The fluorescent intensities of drugs and dyes were detected with CLARIOstar (BMG LABTECH) and relative drug concentrations were normalized to CMFDA level.

CSCs = assay: Annexin V apoptosis assay by flow cytometry in CSCs; format: cell-based, human; conditions: 1 μM DOX for 24 hours, 1 μM peptide
Experimental: (F) Flow Cytometry Analysis:
Cells were detached by Phosphate buffered saline (PBS) with 2.5 mM EDTA and washed with PBS. For determining CSC population, a total of 1×10^6 cells were incubated with APC-CD44 (BD Biosciences) and PE-CD24 (BD Biosciences) in FACS solution (PBS with 1% BSA and 1 mM EDTA) for 30 minutes on ice. APC-IgG2 (BD Biosciences) and PE-IgG2 (BD Biosciences) were used as isotype controls. For determining apoptotic population, a total of 1×10^6 cells were first treated with or without 1 μM DOX for 24 hours, in the absence or presence of 1 μM TAT-SP or TAT-SPScr, followed by incubation with FITC-Annexin V (BD Biosciences) and propidium iodide (PI) in binding buffer (10 mM Hepes, pH 7.4, 140 mM NaCl and 2.5 mM CaCl2) for 30 minutes on ice as per the manufacturer's instructions. For determining CRT surface localization, a total of 1×10^6 cells, treated with or without 1 μM DOX for 24 hours, were incubated with anti-CRT antibody (1:800, CST) in PBS with 3% BSA for 1 hour on ice. After washing with PBS, cells were further incubated with 2 μg/mL goat anti-rabbit Alexa Fluor 488 (Invitrogen) for 45 minutes on ice. Fluorescence signals were analyzed by BD Accuri C6 flow cytometer (BD Biosciences).

in vivo = assay: in vivo; design: species or system Balb/c mice; conditions: mouse, iv, 25 mg/kg
Experimental: (M) Pharmacokinetic Study of SHARPIN-Derived Peptides:
SHARPIN-derived peptides powder was dissolved in 1×PBS and administered intravenously at 25 mg/kg to overnight-starved Balb/c mice (n=3). At different time points (5, 15, 30, 60, 120, 240, 420 min), blood was collected via cardiac puncture and placed in a heparinized Eppendorf tube followed by centrifuged at 14,000 rpm for 5 min to obtain blood plasma. Plasma was stored at −80° C. until analysis. Plasma concentration data were analyzed by non-compartmental model. Area under plasma concentration-time curve (AUC), distribution half-life (t1/2α) and elimination half-life (t1/2β) were calculated by PK solution2.0 (Summit Research Service, Ashland, USA).
(O) UPLC/QQQ-MS Analysis Protocol:
Agilent 6460 Ultra Performance Liquid Chromatography-Electrospray Ionization Triple Quadrupole mass spectrometer (UPLC-QQQ-MS) was used in sample separation, peptide detection and quantification. Waters Acquity UPLC BEH Protein C4 column (1.7 μm, 2.1×100 mm) was used for separation. SHARPIN-derived peptides were separated and eluted by a gradient of water (0.1% FA, v/v) and acetonitrile (ACN) (0.1% FA, v/v) at a constant flow rate of 0.3 mL/min. During separation, an elution protocol was used as follows. Equilibration: 0 to 1 min, 5% ACN. Elution gradient: 1 to 10 min, ACN from 5 to 99%. Regeneration: 10 to 11 min, 99% ACN, then 11 to 11.5 min, ACN from 99% to 5%. Re-equilibration: 11.5 to 13 min: 5% acetonitrile. A hundred microlitres of plasma/tumor samples were added with 300 μL acetonitrile (1% formic acid (FA)) for protein and peptide precipitation. […] after centrifugation at 14,000 rpm for 10 minutes. Then the samples were reconstituted in 50% methanol (0.1% FA, v/v), filtered through a 0.22 μm nylon filter, and kept in the autosampler at 4° C. for analysis. Twenty microliters were injected into the MS. The MS was operated in positive electrospray ionization (ESI+) mode with supply of 300° C. gas temperature and sheath gas temperature, 8 L/min drying gas, and 11 L/min sheath gas flow and 3.5 kV capillary voltage. The signals of TAT-SP and DRI-TAT-SP were recorded at m/z 563 to 661 at collision energy (CE) of 15 eV and m/z 569 to 637 at CE of 20 eV, respectively. TAT-SP and DRI-TAT-SP were eluted at 4.05 and 3.86 minutes, respectively.

[1] = test system: MCF7 human breast cancer xenograft; assay: In vivo efficacy study in MCF7 breast cancer xenograft model; conditions: for No. of toxicity death: MCF7 xenograft nude mice, deaths/animals; for tumor volume at end of study: 20 days; for Tumor inhibition (%): 10 injections in 20 days
Experimental: Data obtained are analyzed to evaluate treatment outcomes. Tumor doubling time is calculated using tumor volumes obtained from the end of experiment versus the tumor volumes on the first day of treatment. Tumor inhibition (%) is calculated using the tumor volumes obtained from the end of experiment. Corresponding equations of determining tumor inhibition (T/C) and tumor doubling time (Td) are provided as follows:
(Q) In Vivo Efficacy Study of DRI-TAT-SP Combined with DOX in Treating MCF7 Breast Cancer Xenograft Model:
Six- to eight-week-old female Balb/c nude mice were maintained under specific pathogen-free conditions prior to in vivo efficacy study. Each animal was implanted with a piece of […] pellet 0.72 mg, 60-day release. (Cat No. SE-121, Innovative Research of America, Sarasota, FL). Four days later, the nude mice were inserted at the both flanks with a sesame sized (around 10 mm^3) MCF-7 tumor piece originated from a tumor bulk. When the tumor reached approximately 100 mm^3 (21-28 days), the mice were randomized and administered intravenously with (1) 1×PBS, (2) DOX 1.2 mg/kg, (3) DRI-TAT-SP 25 mg/kg or (4) DOX 1.2 mg/kg+DRI-TAT-SP 25 mg/kg once every 2 days for a total of 10 injections. Tumor volume was measured using digital caliper once every 4 days. Estimated tumor volume (mm^3) was calculated as ½×length (mm)×width (mm)^2. The mouse body weights were recorded once every two days. The tumor doubling time (Td) was calculated as t×log 2/log(Vf/V0), where t, Vf and V0 stand for interval time, percentage change of tumor volume on final day and percentage change of tumor volume on initial day.

FIG. 7B = assay: FIG. 7B
Source text: Table printed on a drawing sheet, FIG. 7B
First reader's note: The table is printed as an inset in the plasma level versus time plot of DRI-TAT-SP, and the substance name is taken from the plot axis.

[2] = In vivo toxicity test in Balb/c mice; conditions: healthy Balb/c mice, DOX 1.2 mg/kg i.v. once every two days, 10 injections
Experimental: (P) In Vivo Toxicity Test in Balb/c Mice:
Healthy female Balb/c mice (6-8 weeks old) were randomized into 3 groups and were administered with (1) DOX 1.2 mg/kg i.v., (2) DRI-TAT-SP 25 mg/kg i.v, and (3) DOX 1.2 mg/kg+DRI-TAT-SP 25 mg/kg i.v. once every two days (q2d) for 10 injections via tail vein injection. The body weight of the mice was measured once every 2 days. Any toxicity symptoms including body weight change and behavioral changes will be monitored.

[3] = MCF7 xenograft, DOX 1.2 mg/kg, DRI-TAT-SP 25 mg/kg
[4] = MCF7 xenograft, i.v. once every 2 days, DOX 1.2 mg/kg, DRI-TAT-SP 25 mg/kg

T1 sequence (P17301 30-1181): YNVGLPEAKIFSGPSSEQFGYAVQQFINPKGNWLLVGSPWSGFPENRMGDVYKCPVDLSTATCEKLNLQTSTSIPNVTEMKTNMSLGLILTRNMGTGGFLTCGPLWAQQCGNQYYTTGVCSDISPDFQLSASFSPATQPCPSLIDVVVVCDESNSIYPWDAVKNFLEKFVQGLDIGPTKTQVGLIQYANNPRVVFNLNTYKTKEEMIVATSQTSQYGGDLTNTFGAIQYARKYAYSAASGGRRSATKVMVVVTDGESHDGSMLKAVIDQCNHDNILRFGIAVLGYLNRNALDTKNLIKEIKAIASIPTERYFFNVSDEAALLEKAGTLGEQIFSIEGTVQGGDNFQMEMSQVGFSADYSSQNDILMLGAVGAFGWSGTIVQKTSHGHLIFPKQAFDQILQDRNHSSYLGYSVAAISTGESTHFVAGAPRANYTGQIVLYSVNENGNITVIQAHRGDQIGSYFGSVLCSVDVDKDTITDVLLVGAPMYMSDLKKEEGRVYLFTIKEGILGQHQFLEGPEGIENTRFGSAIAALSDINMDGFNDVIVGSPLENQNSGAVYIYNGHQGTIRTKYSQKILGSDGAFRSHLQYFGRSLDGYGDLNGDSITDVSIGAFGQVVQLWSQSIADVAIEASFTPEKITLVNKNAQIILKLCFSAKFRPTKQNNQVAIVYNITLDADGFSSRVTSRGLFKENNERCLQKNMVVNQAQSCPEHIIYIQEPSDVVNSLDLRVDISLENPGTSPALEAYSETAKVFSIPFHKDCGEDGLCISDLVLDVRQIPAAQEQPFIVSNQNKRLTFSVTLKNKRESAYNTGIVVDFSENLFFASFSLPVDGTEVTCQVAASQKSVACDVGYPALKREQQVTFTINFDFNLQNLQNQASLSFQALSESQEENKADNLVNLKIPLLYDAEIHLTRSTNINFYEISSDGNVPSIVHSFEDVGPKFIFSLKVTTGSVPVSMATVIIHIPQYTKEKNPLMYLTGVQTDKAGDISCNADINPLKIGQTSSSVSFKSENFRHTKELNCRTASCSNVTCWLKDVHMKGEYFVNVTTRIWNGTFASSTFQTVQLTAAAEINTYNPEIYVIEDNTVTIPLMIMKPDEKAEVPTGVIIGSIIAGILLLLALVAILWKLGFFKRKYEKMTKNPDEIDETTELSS
T1 sequence (P05556 21-798 partner): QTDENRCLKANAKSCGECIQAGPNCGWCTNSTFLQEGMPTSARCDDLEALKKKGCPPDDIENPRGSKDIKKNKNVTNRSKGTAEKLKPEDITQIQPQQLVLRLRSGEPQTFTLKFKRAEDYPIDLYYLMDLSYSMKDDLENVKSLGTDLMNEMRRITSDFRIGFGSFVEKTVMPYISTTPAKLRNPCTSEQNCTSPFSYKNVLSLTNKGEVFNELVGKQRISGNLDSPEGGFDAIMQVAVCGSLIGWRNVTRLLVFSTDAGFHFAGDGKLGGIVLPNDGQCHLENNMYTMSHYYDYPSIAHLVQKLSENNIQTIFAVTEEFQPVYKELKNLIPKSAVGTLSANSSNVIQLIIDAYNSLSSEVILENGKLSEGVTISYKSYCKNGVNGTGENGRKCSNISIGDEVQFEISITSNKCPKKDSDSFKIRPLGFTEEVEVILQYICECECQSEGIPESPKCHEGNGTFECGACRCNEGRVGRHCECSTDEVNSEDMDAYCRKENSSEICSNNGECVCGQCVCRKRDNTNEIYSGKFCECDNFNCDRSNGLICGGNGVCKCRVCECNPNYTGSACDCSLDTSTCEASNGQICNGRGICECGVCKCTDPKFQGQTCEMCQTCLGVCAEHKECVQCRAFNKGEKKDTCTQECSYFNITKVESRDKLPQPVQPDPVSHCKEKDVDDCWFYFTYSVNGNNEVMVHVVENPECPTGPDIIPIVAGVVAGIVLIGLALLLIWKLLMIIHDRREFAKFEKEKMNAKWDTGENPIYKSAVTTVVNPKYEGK

Compound	modulation of CSC chemoresistance with respect to DOX, PTX and VCR (MCF-7 CSC; CSCs, DOX, PTX and VCR IC50 (FIG. 5D))	competition with CRT for the KXGFFKR motif / inhibition of immunoprecipitation of ITGA2 (ITGA2/CRT interaction)	activation of Akt pathway by ITGA2 (p-Akt T308) (Akt pathway)	DOX accumulation (MRP1)	DOX-induced apoptosis (CSCs)	EC50 (MCF-7 CSC; MCF-7 breast CSCs, in the presence of DOX, 72-hour incubation, read-out: EC50 of reversing chemoresistance in the presence of DOX (DOX-EC50)) [nM]	Cmax (in vivo; Balb/c) [ng/mL]	half-life (in vivo; Balb/c, distribution half-life t1/2α) [h]	half-life (in vivo; Balb/c, elimination half-life t1/2β) [h]	time of Cmax post administration (in vivo) [min]	No. of toxicity death [1]	tumor volume at end of study [1, 3] [mm^3]	Tumor inhibition (%) [1, 4] [%]	Tumor doubling time ([1]; MCF7 xenograft, i.v. once every 2 days, 10 injections, DOX 1.2 mg/kg, DRI-TAT-SP 25 mg/kg) [days]	AUC(0-obs) | ng-min/mL (FIG. 7B)	body weight change [2]
RKKRRQRRRSELGFPPAVQRWVIGRCLCVPER [TAT-SP]	able to modulate CSC chemoresistance	compete with CRT	inhibits the activation of Akt pathway	high level of DOX accumulation	leaves CSCs unprotected from DOX-induced apoptosis	–	–	–	–	–	–	–	–	–	–	–
CC[C@@H](C)[C@@H](NC(=O)CNC(=O)[C@@H](CCCNC(=N)N)NC(=O)[C@@H](CS)NC(=O)[C@@H](CC(C)C)NC(=O)[C@@H](CS)NC(=O)[C@H](NC(=O)[C@H]1CCCN1C(=O)[C@@H](CCC(=O)O)NC(=O)[C@@H](CCCNC(=N)N)NC(C)=O)C(C)C)C(=O)N[C@@H](C(=O)N[C@H](Cc1c[nH]c2ccccc12)C(=O)N[C@H](CCCNC(=N)N)C(=O)N[C@H](CCC(N)=O)C(=O)N[C@@H](C(=O)N[C@H](C)C(=O)N1CCC[C@@H]1C(=O)N1CCC[C@@H]1C(=O)N[C@H](Cc1ccccc1)C(=O)NCC(=O)N[C@H](CC(C)C)C(=O)N[C@H](CCC(=O)O)C(=O)N[C@H](CO)C(=O)N[C@H](CCCNC(=N)N)C(=O)N[C@H](CCCNC(=N)N)C(=O)N[C@H](CCCNC(=N)N)C(=O)N[C@H](CCC(N)=O)C(=O)N[C@H](CCCNC(=N)N)C(=O)N[C@H](CCCNC(=N)N)C(=O)N[C@H](CCCCN)C(=O)N[C@H](CCCCN)C(=O)N[C@H](CCCNC(=N)N)C(N)=O)C(C)C)C(C)C [DRI-TAT-SP, Ac-repvclcrgivwrqvappfglesrrrqrrkkr-NH2] (HELM PEPTIDE1{[ac].[dR].[dE].[dP].[dV].[dC].[dL].[dC].[dR].G.[dI].[dV].[dW].[dR].[dQ].[dV].[dA].[dP].[dP].[dF].G.[dL].[dE].[dS].[dR].[dR].[dR].[dQ].[dR].[dR].[dK].[dK].[dR].[am]}$$$$V2.0)	–	–	–	–	–	2300 ± 400	870	0.265	7.37	5	0/6	325±135	10.1	12.9	118,010 ng-min/mL	–
COc1cccc2c1C(=O)c1c(O)c3c(c(O)c1C2=O)C[C@@](O)(C(=O)CO)C[C@@H]3O[C@H]1C[C@H](N)[C@H](O)[C@H](C)O1 [Doxorubicin, reference compound]	–	–	–	–	–	–	–	–	–	–	0/8	270±73	21.5	–	–	+0.6±2.4%

Source: US12037361B2, “Methods for treating multidrug resistant breast cancer” (THE HONG KONG POLYTECHNIC UNIVERSITY, priority 2021, dated 2024)
